In patent US20130131062A1, “PYRIDAZINONES AND FURAN-CONTAINING COMPOUNDS” (priority 2006, published 2013):

Experiments:
[1] = tested on: H1650; experiment: Non Small Cell Lung Cancer Proliferation Assay (Alamar Blue); format: cell-based, human; conditions: Homo sapiens, NCI-H1650, dose response 10 μM to 5 nM
Protocol: (§1) Non Small Cell Lung Cancer cell lines are grown and maintained in Corning 175 cm2 flasks in RPMI 1640 media supplemented with 10% FBS, 1% antibiotic solution, 1% additional glutamine and pyruvate. These cells have a doubling time of 1-2 days. All cell types are adherent and grow in colonies. The cells should be kept at a density between 50,000 cells/mL-500,000 cells/mL to provide for optimum growth and adequate nutrition. The cell line should be maintained at 37° C. in a humidified atmosphere with 5% CO2 in a sterile cell culture incubator.
(§2) To perform the assay, the Non Small Cell Lung Cancer lines are diluted in media and plated into 384 well microplates at a final density of 250 cells in 45 μL. To ensure consistency and minimal pipetting error, the cells are plated using the Multidrop 384 with the following settings: Rocker Switch set at 384, Volume 45 and Column 24.
(§3) Low Controls for this assay are made by treating Non Small Cell Lung Cancer cells with 5 ul of staurosporine at 250 uM in 10% DMSO and 1% SDS. [Final concentration in this assay is 25 uM staurosporine in 1% DMSO and 0.1% SDS.]
(§4) High Controls for this assay are made by treating Non Small Cell Lung Cancer cells with 5 ul of 10% DMSO. [Final concentration in this assay is 1% DMSO].
(§5) The remaining wells of the 384 microplate may be treated with different compounds depending on the study. Important Note: All compounds for testing in this assay should be done at the final concentration of 1% DMSO.
(§6) After addition, the cells are placed in cell culture incubator at 37° C. for 48 hours for complete treatment.
(§7) After drug treatment, cytotoxicity is measured by Alamar Blue reduction. 5 μL of Alamar Blue is added to the 384 microplates using the Flexdrop.
(§8) The cells are incubated for 48 hours at 37° C. to complete the Alamar Blue reduction.
(§9) The final step in the assay is to measure the amount of Alamar Blue reduction. […] The Alamar Blue fluorescence is measured at an excitation of 530 nm and emission of 590 nm.
(§10) For the NSCLC project, the cell based assay was screened against a small molecule library of approximately 200,000 compounds. The compound library is stored in our automated robotic freezer (Biophile) at −20° C. in 100% DMSO. Compound freeze and thaw cycles are kept to a minimum. Compounds for use are diluted into the appropriate concentration and plated into 384 well microplates using our custom built low volume 384-well head tool (TPS 384, Apricot Designs Inc., CA, USA). This assay was performed on a fully automated linear track robotic platform (CRS F3 Robot System, Thermo Electron Corp., Ontario, Canada) utilizing several integrated peripherals for plate handling, liquid dispensing, and readout detection. First, non-small cell lung cancer cell lines are dispensed into 384 well microplates (Corning #3712 Tissue Culture Treated Plate, Corning, N.Y., USA) with 5 μL of test compounds at 100 uM in 10% DMSO for screening studies or 1 mM in 10% DMSO to 50 nM in 10% DMSO for dose response studies. The microplates are then placed at 37° C. for 48 hours to complete treatment of cells with compounds. Next, 5 ul of alamar blue was added using a liquid dispenser (FlexDrop Precision Dispenser, Perkin Elmer, Mass., USA) and incubated for 48 hours at 37° C. The alamar blue prompt fluorescence was measured on Victor V (Victor^3 V, Perkin Elmer, Mass., USA) and output data files were loaded into ORIS (Oncology Research Informatics System, MSKCC, NY, USA), a screening data acquisition and analysis platform.

[2] = tested on: H1975; experiment: as above; format: cell-based, human; conditions: Homo sapiens, NCI-H1975, dose response 10 μM to 5 nM
Protocol: as §1, §2, §3, §4, §5, §6, §7, §8, §9, §10

[3] = tested on: H2030; experiment: as above; format: cell-based, human; conditions: Homo sapiens, NCI-H2030, dose response 10 μM to 5 nM
Protocol: (§11) These cells have a doubling time of 1-2 days. All cell types are adherent and grow in colonies. The cells should be kept at a density between 50,000 cells/mL-500,000 cells/mL to provide for optimum growth and adequate nutrition. The cell line should be maintained at 37° C. in a humidified atmosphere with 5% CO2 in a sterile cell culture incubator.
(§12) To perform the assay, the Non Small Cell Lung Cancer lines are diluted in media and plated into 384 well microplates at a final density of 250 cells in 45 μL.
as §4
(§13) Important Note: All compounds for testing in this assay should be done at the final concentration of 1% DMSO.
as §6
(§14) After drug treatment, cytotoxicity is measured by Alamar Blue reduction.
as §8, §9
as §10, with “Compounds for use are diluted into the appropriate concentration and plated into 384 well microplates using our custom built low volume 384-well head tool (TPS 384, Apricot Designs Inc., CA, USA).” left out, “First, non-small cell lung cancer cell lines are dispensed into 384 well microplates (Corning #3712 Tissue Culture Treated Plate, Corning, N.Y., USA) with 5 μL of test compounds at 100 uM in 10% DMSO for screening studies or 1 mM in 10% DMSO to 50 nM in 10% DMSO for dose response studies.” left out

[4] = tested on: H3255; experiment: as above; format: cell-based, human; conditions: Homo sapiens, NCI-H3255, dose response 10 μM to 5 nM
Protocol: as §11, §12, §4, §13, §6, §14, §8, §9
as §10, with “Compounds for use are diluted into the appropriate concentration and plated into 384 well microplates using our custom built low volume 384-well head tool (TPS 384, Apricot Designs Inc., CA, USA).” left out, “First, non-small cell lung cancer cell lines are dispensed into 384 well microplates (Corning #3712 Tissue Culture Treated Plate, Corning, N.Y., USA) with 5 μL of test compounds at 100 uM in 10% DMSO for screening studies or 1 mM in 10% DMSO to 50 nM in 10% DMSO for dose response studies.” left out

[5] = in vitro; conditions: human
Protocol: NHBE (normal human bronchiolar epithelial cells) are primary cells obtained from donor lungs and commercially available from Cambrex. The HPLID (human peripheral lung epithelial) cell line has been immortalized with the SV40 large T-antigen. WI-38: human lung fibroblast cell line. HPLID, NHBE and WI-38 cells will serve as controls in the chemical screens. WT: wildtype; WT*: over-expressed wildtype.
Compounds were tested in dose response studies from 10 μM to 5 nM against several non small cell lung cancer lines: H358, H827, H1118, H1650, H1734, H1975, H2030, and H3255, and were also studied in a 72 hour cytotoxicity assay against the NHBE and WI-38 cell lines.

[6] = tested on: H358; experiment: Non Small Cell Lung Cancer Proliferation Assay (Alamar Blue), dose response; conditions: Homo sapiens, NCI-H358, read-out: H358 Dose Response (uM)
Protocol: (§15) This assay was performed on a fully automated linear track robotic platform (CRS F3 Robot System, Thermo Electron Corp., Ontario, Canada) utilizing several integrated peripherals for plate handling, liquid dispensing, and readout detection. […] The microplates are then placed at 37° C. for 48 hours to complete treatment of cells with compounds. Next, 5 ul of alamar blue was added using a liquid dispenser (FlexDrop Precision Dispenser, Perkin Elmer, Mass., USA) and incubated for 48 hours at 37° C. The alamar blue prompt fluorescence was measured on Victor V (Victor^3 V, Perkin Elmer, Mass., USA) and output data files were loaded into ORIS (Oncology Research Informatics System, MSKCC, NY, USA), a screening data acquisition and analysis platform. […]

[7] = tested on: H1734; experiment: as above; conditions: Homo sapiens, NCI-H1734, read-out: H1734 Dose Response (uM)
Protocol: as §15

IC50 [1]: 2740 nM
IC50 [2]: 470 nM
IC50 [3]: 1080 nM
IC50 [4]: 2950 nM
IC50 at 72 h [5]: 7.52 µM
IC50 [6]: 0.74 µM
IC50 [7]: 3.2 µM
SMILES: Cc1ccccc1-n1ncc(Cl)c(Cl)c1=O [compound 257017]
IC50 at 72 h ([5]; NHBE CytoTox (uM)): 5.17 µM
